pIC50: −log10 of the molar value.
Legend:
[1] = target: T1, PBP1a from Acinetobacter baumannii (ATCC 19606) (Acinetobacter baumannii, UniProt A0ABX6CK30); assay: Bocillin-FL fluorescence polarization competition binding, A. baumannii PBP1a; conditions: fluorescence polarization competition binding assay using Bocillin-FL; read-out: A. baumannii PBP1a Potency
T1 sequence (A0ABX6CK30 1-851): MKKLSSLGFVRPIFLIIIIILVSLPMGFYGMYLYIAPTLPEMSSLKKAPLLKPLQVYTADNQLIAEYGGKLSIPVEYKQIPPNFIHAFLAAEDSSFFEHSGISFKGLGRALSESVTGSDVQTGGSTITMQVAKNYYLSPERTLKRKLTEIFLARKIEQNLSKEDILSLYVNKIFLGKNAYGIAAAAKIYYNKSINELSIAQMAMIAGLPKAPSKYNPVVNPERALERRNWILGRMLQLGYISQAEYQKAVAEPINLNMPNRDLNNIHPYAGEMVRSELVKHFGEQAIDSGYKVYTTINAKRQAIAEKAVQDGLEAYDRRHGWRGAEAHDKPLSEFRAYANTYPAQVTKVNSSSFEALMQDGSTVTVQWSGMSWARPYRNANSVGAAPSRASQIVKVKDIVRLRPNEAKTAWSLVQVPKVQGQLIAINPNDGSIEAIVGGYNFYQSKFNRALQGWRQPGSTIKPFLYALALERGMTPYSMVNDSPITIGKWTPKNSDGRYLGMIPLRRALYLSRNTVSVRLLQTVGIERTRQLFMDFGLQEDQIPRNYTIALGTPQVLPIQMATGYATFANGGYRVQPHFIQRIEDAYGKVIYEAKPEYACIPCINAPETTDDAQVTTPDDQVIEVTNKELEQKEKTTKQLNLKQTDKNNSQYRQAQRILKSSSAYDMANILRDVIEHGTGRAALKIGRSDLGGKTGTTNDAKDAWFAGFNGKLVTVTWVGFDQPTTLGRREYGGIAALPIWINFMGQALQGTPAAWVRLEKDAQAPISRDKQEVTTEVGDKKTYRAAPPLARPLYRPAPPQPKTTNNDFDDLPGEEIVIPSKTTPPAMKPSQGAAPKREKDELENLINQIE
Method in brief: (§1)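 Purified PBPs pre-incubated with inhibitor (E. coli PBP3 1.5 μM, 30 min; P. aeruginosa PBP3 0.75 μM, A. baumannii PBP1a 1 μM and PBP3 0.2 μM, 15 min), then Bocillin-FL 0.1 μM (0.05 μM for PBP1a) added; FP read up to 60 min. EC50 = concentration halving bound Bocillin-FL.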

[2] = target: T2, PBP3 from Acinetobacter baumannii (ATCC 19606) (Acinetobacter baumannii, UniProt A0ABX6CK25); assay: Bocillin-FL fluorescence polarization competition binding, A. baumannii PBP3; conditions: fluorescence polarization competition binding assay using Bocillin-FL; read-out: A. baumannii PBP3 Potency
T2 sequence (A0ABX6CK25 64-610): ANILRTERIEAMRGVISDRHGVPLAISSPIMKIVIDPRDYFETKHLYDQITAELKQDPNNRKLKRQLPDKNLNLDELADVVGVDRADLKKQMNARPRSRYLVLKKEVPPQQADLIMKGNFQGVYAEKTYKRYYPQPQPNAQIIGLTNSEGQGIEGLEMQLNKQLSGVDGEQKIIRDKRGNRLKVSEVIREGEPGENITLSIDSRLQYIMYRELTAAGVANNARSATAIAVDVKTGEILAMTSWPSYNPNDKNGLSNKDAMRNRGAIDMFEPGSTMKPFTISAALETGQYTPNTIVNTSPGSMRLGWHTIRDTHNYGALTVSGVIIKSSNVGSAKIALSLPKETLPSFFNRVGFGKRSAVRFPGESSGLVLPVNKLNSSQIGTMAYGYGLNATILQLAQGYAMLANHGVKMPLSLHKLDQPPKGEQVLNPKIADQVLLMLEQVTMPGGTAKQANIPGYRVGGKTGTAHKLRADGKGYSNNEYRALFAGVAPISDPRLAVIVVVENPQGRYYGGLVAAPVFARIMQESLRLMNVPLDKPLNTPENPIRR
Method in brief: as §1

[3] = test system: A. baumannii ATCC 17978; assay: microbe, parasite or virus in culture; format: cell-based; conditions: Acinetobacter baumannii, ATCC17978, read-out: MIC, A. baumannii ATCC 17978

Work on `CN(CCN1CCN(C(=O)N[C@@H](C(=O)N[C@H]2Cc3ccc(F)c(C(=O)O)c3OB2O)c2cc(F)c(O)c(O)c2Cl)C(=O)C1=O)Cc1nccs1` [Example 200, (R)-3-((R)-2-(2-chloro-5-fluoro-3,4-dihydroxyphenyl)-2-(4-(2-(methyl(thiazol-2-ylmethyl)amino)ethyl)-2,3-dioxopiperazine-1-carboxamido)acetamido)-7-fluoro-2-hydroxy-3,4-dihydro-2H-benzo[e][1,2]oxaborinine-8-carboxylic acid] yielded a pIC50 [1] of less than 3.60, a pIC50 [2] greater than 5.00 and an MIC [3] of less than 1 mg/L.
Compound `CN(CCN1CCN(C(=O)N[C@@H](C(=O)N[C@H]2Cc3ccc(F)c(C(=O)O)c3OB2O)c2cc(F)c(O)c(O)c2Cl)C(=O)C1=O)Cc1cccnc1` [Example 201, (R)-3-((R)-2-(2-chloro-5-fluoro-3,4-dihydroxyphenyl)-2-(4-(2-(methyl(pyridin-3-ylmethyl)amino)ethyl)-2,3-dioxopiperazine-1-carboxamido)acetamido)-7-fluoro-2-hydroxy-3,4-dihydro-2H-benzo[e][1,2]oxaborinine-8-carboxylic acid] has a pIC50 [1] of less than 3.60, a pIC50 [2] greater than 5.00 and an MIC [3] of less than 1 mg/L.
Compound `O=C(NCCCN1CCN(C(=O)NC(C(=O)N[C@H]2Cc3ccc(F)c(C(=O)O)c3OB2O)c2cc(F)c(O)c(O)c2Cl)C(=O)C1=O)c1ccccc1` (stereo partly drawn) [Example 202, (3R)-3-(2-(4-(3-benzamidopropyl)-2,3-dioxopiperazine-1-carboxamido)-2-(2-chloro-5-fluoro-3,4-dihydroxyphenyl)acetamido)-7-fluoro-2-hydroxy-3,4-dihydro-2H-benzo[e][1,2]oxaborinine-8-carboxylic acid] has a pIC50 [1] of less than 3.60, a pIC50 [2] greater than 5.00 and an MIC [3] of less than 1 mg/L.
Compound `O=C(NCCCN1CCN(C(=O)NC(C(=O)N[C@H]2Cc3ccc(F)c(C(=O)O)c3OB2O)c2cc(F)c(O)c(O)c2Cl)C(=O)C1=O)c1ccc(O)cc1` (stereo partly drawn) [Example 203, (3R)-3-(2-(2-chloro-5-fluoro-3,4-dihydroxyphenyl)-2-(4-(3-(4-hydroxybenzamido)propyl)-2,3-dioxopiperazine-1-carboxamido)acetamido)-7-fluoro-2-hydroxy-3,4-dihydro-2H-benzo[e][1,2]oxaborinine-8-carboxylic acid] has a pIC50 [1] of less than 3.60, a pIC50 [2] greater than 5.00 and an MIC [3] of less than 1 mg/L.
`O=C(NCCCN1CCN(C(=O)NC(C(=O)N[C@H]2Cc3ccc(F)c(C(=O)O)c3OB2O)c2cc(F)c(O)c(O)c2Cl)C(=O)C1=O)c1cccc(O)c1` (stereo partly drawn) [Example 204, (3R)-3-(2-(2-chloro-5-fluoro-3,4-dihydroxyphenyl)-2-(4-(3-(3-hydroxybenzamido)propyl)-2,3-dioxopiperazine-1-carboxamido)acetamido)-7-fluoro-2-hydroxy-3,4-dihydro-2H-benzo[e][1,2]oxaborinine-8-carboxylic acid] was tested, and the pIC50 [2] was greater than 5.00 and the MIC [3] was less than 1 mg/L.
`O=C(NCCCN1CCN(C(=O)NC(C(=O)N[C@H]2Cc3ccc(F)c(C(=O)O)c3OB2O)c2cc(F)c(O)c(O)c2Cl)C(=O)C1=O)c1ccncc1` (stereo partly drawn) [Example 205, (3R)-3-(2-(2-chloro-5-fluoro-3,4-dihydroxyphenyl)-2-(4-(3-(isonicotinamido)propyl)-2,3-dioxopiperazine-1-carboxamido)acetamido)-7-fluoro-2-hydroxy-3,4-dihydro-2H-benzo[e][1,2]oxaborinine-8-carboxylic acid] was tested, and the pIC50 [1] was less than 3.60, the pIC50 [2] was greater than 5.00 and the MIC [3] was less than 1 mg/L.
With `O=C(NCCCN1CCN(C(=O)NC(C(=O)N[C@H]2Cc3ccc(F)c(C(=O)O)c3OB2O)c2cc(F)c(O)c(O)c2Cl)C(=O)C1=O)Nc1cccc(O)c1` (stereo partly drawn) [Example 206, (3R)-3-(2-(2-chloro-5-fluoro-3,4-dihydroxyphenyl)-2-(4-(3-(3-(3-hydroxyphenyl)ureido)propyl)-2,3-dioxopiperazine-1-carboxamido)acetamido)-7-fluoro-2-hydroxy-3,4-dihydro-2H-benzo[e][1,2]oxaborinine-8-carboxylic acid] the pIC50 [1] was less than 3.60, the pIC50 [2] was greater than 5.00 and the MIC [3] was less than 1 mg/L.
`O=C(NCCN1CCN(C(=O)NC(C(=O)N[C@H]2Cc3ccc(F)c(C(=O)O)c3OB2O)c2cc(F)c(O)c(O)c2Cl)C(=O)C1=O)c1ccccc1` (stereo partly drawn) [Example 207, (3R)-3-(2-(4-(2-benzamidoethyl)-2,3-dioxopiperazine-1-carboxamido)-2-(2-chloro-5-fluoro-3,4-dihydroxyphenyl)acetamido)-7-fluoro-2-hydroxy-3,4-dihydro-2H-benzo[e][1,2]oxaborinine-8-carboxylic acid] showed a pIC50 [1] of less than 3.60, a pIC50 [2] greater than 5.00 and an MIC [3] of less than 1 mg/L.
With `CN(CCN1CCN(C(=O)N[C@@H](C(=O)N[C@H]2Cc3ccc(F)c(C(=O)O)c3OB2O)c2cc(F)c(O)c(O)c2Cl)C(=O)C1=O)Cc1cncc(O)c1` [Example 208, (R)-3-((R)-2-(2-chloro-5-fluoro-3,4-dihydroxyphenyl)-2-(4-(2-(((5-hydroxypyridin-3-yl)methyl)(methyl)amino)ethyl)-2,3-dioxopiperazine-1-carboxamido)acetamido)-7-fluoro-2-hydroxy-3,4-dihydro-2H-benzo[e][1,2]oxaborinine-8-carboxylic acid] the pIC50 [2] was greater than 5.00 and the MIC [3] was less than 1 mg/L.
With `CN(CCN1CCN(C(=O)N[C@@H](C(=O)N[C@H]2Cc3ccc(F)c(C(=O)O)c3OB2O)c2cc(F)c(O)c(O)c2Cl)C(=O)C1=O)Cc1ccc(N)nc1` [Example 209, (R)-3-((R)-2-(4-(2-(((6-aminopyridin-3-yl)methyl)(methyl)amino)ethyl)-2,3-dioxopiperazine-1-carboxamido)-2-(2-chloro-5-fluoro-3,4-dihydroxyphenyl)acetamido)-7-fluoro-2-hydroxy-3,4-dihydro-2H-benzo[e][1,2]oxaborinine-8-carboxylic acid] the pIC50 [1] was less than 3.60, the pIC50 [2] was greater than 5.00 and the MIC [3] was less than 1 mg/L.
Compound `O=C(NCCCN1CCN(C(=O)N[C@@H](C(=O)N[C@H]2Cc3ccc(F)c(C(=O)O)c3OB2O)c2cc(F)c(O)c(O)c2Cl)C(=O)C1=O)c1cccnc1` [Example 210, (R)-3-((R)-2-(2-chloro-5-fluoro-3,4-dihydroxyphenyl)-2-(4-(3-(nicotinamido)propyl)-2,3-dioxopiperazine-1-carboxamido)acetamido)-7-fluoro-2-hydroxy-3,4-dihydro-2H-benzo[e][1,2]oxaborinine-8-carboxylic acid] has a pIC50 [1] of less than 3.60, a pIC50 [2] greater than 5.00 and an MIC [3] of less than 1 mg/L.
`O=C(NCCCN1CCN(C(=O)NC(C(=O)N[C@H]2Cc3ccc(F)c(C(=O)O)c3OB2O)c2cc(F)c(O)c(O)c2Cl)C(=O)C1=O)c1nccs1` (stereo partly drawn) [Example 211, (3R)-3-(2-(2-chloro-5-fluoro-3,4-dihydroxyphenyl)-2-(2,3-dioxo-4-(3-(thiazole-2-carboxamido)propyl)piperazine-1-carboxamido)acetamido)-7-fluoro-2-hydroxy-3,4-dihydro-2H-benzo[e][1,2]oxaborinine-8-carboxylic acid] gave a pIC50 [1] of less than 3.60, a pIC50 [2] greater than 5.00 and an MIC [3] of less than 1 mg/L.
For `O=C(NCCN1CCN(C(=O)NC(C(=O)N[C@H]2Cc3ccc(F)c(C(=O)O)c3OB2O)c2cc(F)c(O)c(O)c2Cl)C1=O)Nc1cccc(O)c1` (stereo partly drawn) [Example 249, (3R)-3-(2-(2-chloro-5-fluoro-3,4-dihydroxyphenyl)-2-(3-(2-(3-(3-hydroxyphenyl)ureido)ethyl)-2-oxoimidazolidine-1-carboxamido)acetamido)-7-fluoro-2-hydroxy-3,4-dihydro-2H-benzo[e][1,2]oxaborinine-8-carboxylic acid], the pIC50 [2] was greater than 5.00 and the MIC [3] was less than 1 mg/L.
